# In ChEMBL document CHEMBL1909046, “DrugMatrix in vitro pharmacology data”:
# Tests used:
# [1] = molecular target: T1, Alpha-2C adrenergic receptor (Homo sapiens, UniProt P18825); experiment: DRUGMATRIX: Adrenergic Alpha-2C radioligand binding (ligand: [3H] MK-912); format: cell membranes, Sf9, Membrane; conditions: sf9
# T1 sequence (P18825 whole entry): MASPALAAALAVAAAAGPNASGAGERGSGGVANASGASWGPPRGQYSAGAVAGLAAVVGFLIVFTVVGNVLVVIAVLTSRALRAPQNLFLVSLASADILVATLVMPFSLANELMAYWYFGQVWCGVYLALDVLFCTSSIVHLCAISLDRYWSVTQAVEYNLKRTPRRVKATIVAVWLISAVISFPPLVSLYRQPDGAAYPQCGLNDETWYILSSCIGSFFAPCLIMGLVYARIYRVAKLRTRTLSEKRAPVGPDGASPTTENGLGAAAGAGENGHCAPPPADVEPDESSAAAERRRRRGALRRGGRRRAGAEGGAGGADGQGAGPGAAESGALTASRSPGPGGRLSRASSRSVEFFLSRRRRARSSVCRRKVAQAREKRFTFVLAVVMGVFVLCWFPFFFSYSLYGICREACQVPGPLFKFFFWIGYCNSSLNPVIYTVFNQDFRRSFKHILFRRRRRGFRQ
# B2 bradykinin receptor = molecular target: T2, B2 bradykinin receptor (Homo sapiens, UniProt P30411); format: cell membranes, Membrane; conditions: chem-1; further: in other assays of this panel Not Active means under 50% inhibition at 10 µM
# T2 sequence (P30411 whole entry): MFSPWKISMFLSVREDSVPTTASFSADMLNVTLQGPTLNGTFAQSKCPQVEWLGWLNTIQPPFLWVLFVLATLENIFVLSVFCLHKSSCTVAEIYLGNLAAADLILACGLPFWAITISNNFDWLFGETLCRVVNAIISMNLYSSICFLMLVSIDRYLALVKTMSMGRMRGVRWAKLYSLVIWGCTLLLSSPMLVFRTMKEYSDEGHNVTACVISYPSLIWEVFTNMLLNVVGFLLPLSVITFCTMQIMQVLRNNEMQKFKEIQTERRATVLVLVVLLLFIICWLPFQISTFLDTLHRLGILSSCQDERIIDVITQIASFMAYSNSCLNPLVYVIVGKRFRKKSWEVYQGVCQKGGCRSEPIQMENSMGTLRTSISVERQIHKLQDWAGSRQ
# [2] = molecular target: Sodium-dependent dopamine transporter (Homo sapiens, UniProt Q01959); experiment: DRUGMATRIX: Dopamine Transporter radioligand binding (ligand: [125I] RTI-55); format: cell membranes, CHO-K1, Membrane; conditions: Not Active = under 50% inhibition at 10 µM
# Sequence of Sodium-dependent dopamine transporter (Q01959 whole entry): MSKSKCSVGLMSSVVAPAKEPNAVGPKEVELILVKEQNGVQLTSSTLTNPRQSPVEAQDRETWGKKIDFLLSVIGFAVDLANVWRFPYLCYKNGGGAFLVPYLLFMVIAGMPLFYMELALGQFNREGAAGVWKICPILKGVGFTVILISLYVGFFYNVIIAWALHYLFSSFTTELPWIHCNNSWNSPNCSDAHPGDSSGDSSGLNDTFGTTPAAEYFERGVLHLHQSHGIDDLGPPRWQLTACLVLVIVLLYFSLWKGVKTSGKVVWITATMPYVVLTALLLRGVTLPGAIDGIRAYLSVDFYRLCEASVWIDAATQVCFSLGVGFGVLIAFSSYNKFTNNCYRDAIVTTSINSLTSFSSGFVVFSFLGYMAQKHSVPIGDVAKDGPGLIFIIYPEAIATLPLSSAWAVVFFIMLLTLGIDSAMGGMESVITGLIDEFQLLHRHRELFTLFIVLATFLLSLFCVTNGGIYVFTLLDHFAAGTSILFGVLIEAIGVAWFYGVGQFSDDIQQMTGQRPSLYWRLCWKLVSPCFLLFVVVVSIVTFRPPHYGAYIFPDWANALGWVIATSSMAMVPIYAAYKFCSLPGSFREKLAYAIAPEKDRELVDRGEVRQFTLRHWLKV
# [3] = molecular target: cGMP-specific 3',5'-cyclic phosphodiesterase (Homo sapiens, UniProt O76074); experiment: DRUGMATRIX: Phosphodiesterase PDE5 enzyme inhibition (substrate: [3H]cGMP + cGMP); format: tissue-based, Platelet; conditions: platelet; Not Active = under 50% inhibition at 10 µM
# Adenosine receptor A1 = molecular target: T3, Adenosine receptor A1 (Homo sapiens, UniProt P30542); format: cell membranes, CHO, Membrane; conditions: cho;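 further: radioligand binding assay at the adenosine A1 receptor, with DPCPX serving as the labelled ligand; in other assays of this panel Not Active means under 50% inhibition at 10 µM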
# T3 sequence (P30542 whole entry): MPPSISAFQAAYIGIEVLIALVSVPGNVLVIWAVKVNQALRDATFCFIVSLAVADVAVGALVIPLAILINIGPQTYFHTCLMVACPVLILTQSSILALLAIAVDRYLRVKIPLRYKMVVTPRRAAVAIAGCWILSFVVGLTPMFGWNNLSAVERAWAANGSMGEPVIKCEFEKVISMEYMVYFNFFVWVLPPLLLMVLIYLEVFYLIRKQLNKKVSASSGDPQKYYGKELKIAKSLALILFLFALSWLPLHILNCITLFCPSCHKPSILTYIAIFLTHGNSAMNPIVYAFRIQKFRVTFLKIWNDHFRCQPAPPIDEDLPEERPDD
# Cytochrome P450 2E1 = Cytochrome P450 2E1 (Homo sapiens, UniProt P05181); conditions: bti-tn-5b1-4; further: in other assays of this panel Not Active means under 50% inhibition at 10 µM
# Sequence of Cytochrome P450 2E1 (P05181 whole entry): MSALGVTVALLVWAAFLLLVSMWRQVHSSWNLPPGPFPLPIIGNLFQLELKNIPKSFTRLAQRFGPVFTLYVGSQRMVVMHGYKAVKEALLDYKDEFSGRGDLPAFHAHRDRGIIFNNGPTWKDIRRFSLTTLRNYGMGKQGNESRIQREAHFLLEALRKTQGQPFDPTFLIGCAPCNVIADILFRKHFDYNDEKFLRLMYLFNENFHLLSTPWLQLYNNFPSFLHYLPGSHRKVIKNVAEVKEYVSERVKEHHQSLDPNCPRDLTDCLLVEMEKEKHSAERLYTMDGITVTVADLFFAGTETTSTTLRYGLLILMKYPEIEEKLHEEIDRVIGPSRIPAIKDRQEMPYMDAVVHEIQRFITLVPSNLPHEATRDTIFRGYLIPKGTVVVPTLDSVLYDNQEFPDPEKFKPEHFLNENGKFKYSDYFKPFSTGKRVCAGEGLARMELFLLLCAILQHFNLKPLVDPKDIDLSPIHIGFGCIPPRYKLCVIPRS
SMILES,IC50 [1],IC50 (B2 bradykinin receptor),IC50 ([2]; cho-k1),IC50 [3],IC50 (Adenosine receptor A1),IC50 (Cytochrome P450 2E1),Ki (Cytochrome P450 2E1),IC50 ([2]; read-out: IC50) [µM],Ki ([2]; read-out: Ki) [µM]
O=C(O)CCNC(=O)c1ccccc1 [BETAMIPRON],Not Active,Not Active,Not Active,Not Active,Not Active,Not Active,Not Active,–,–
Cc1cc2c(OCC(CNC(C)(C)C)OC(=O)c3ccccc3)cccc2[nH]1 (configuration not stated) [BOPINDOLOL],Not Active,Not Active,Not Active,Not Active,Not Active,Not Active,Not Active,–,–
Brc1c(NC2=NCCN2)ccc2nccnc12 [BRIMONIDINE],Not Active,Not Active,Not Active,Not Active,Not Active,Not Active,Not Active,–,–
CN(C)[C@@H]1C(O)=C(C(N)=O)C(=O)[C@@]2(O)C(O)=C3C(=O)c4c(O)ccc(Cl)c4[C@@](C)(O)[C@H]3C[C@@H]12 [CHLORTETRACYCLINE],Not Active,Not Active,Not Active,Not Active,Not Active,Not Active,Not Active,–,–
CN/C(=N\CCSCc1nc[nH]c1C)NC#N [CIMETIDINE],Not Active,Not Active,Not Active,Not Active,Not Active,Not Active,Not Active,–,–
CCC(=O)O[C@]1(C(=O)CCl)[C@@H](C)C[C@H]2[C@@H]3CCC4=CC(=O)C=C[C@]4(C)[C@@]3(F)[C@@H](O)C[C@@]21C [CLOBETASOL PROPIONATE],Not Active,Not Active,Not Active,Not Active,Not Active,Not Active,Not Active,–,–
O=C1CN=C(c2ccccc2Cl)c2cc([N+](=O)[O-])ccc2N1 [CLONAZEPAM],Not Active,Not Active,Not Active,Not Active,Not Active,Not Active,Not Active,–,–
Nc1ccn([C@@H]2O[C@H](CO)[C@@H](O)[C@@H]2O)c(=O)n1 [CYTARABINE],Not Active,Not Active,Not Active,Not Active,Not Active,Not Active,Not Active,–,–
C[C@@H]1C[C@H]2[C@@H]3CCC4=CC(=O)C=C[C@]4(C)[C@@]3(F)[C@@H](O)C[C@]2(C)[C@H]1C(=O)CO [DESOXIMETASONE],Not Active,Not Active,Not Active,Not Active,Not Active,Not Active,Not Active,–,–
C[C@@H]1C[C@H]2[C@@H]3CCC4=CC(=O)C=C[C@]4(C)[C@@]3(F)[C@@H](O)C[C@]2(C)[C@@]1(O)C(=O)CO [DEXAMETHASONE],Not Active,Not Active,Not Active,Not Active,Not Active,Not Active,Not Active,–,–
CN(C)CC[C@@H](c1ccc(Cl)cc1)c1ccccn1 [DEXCHLORPHENIRAMINE],Not Active,Not Active,–,Not Active,Not Active,Not Active,Not Active,0.931,0.739
C[C@@H]1CC[C@@]2(OC1)O[C@H]1[C@@H](O)[C@H]3[C@@H]4CC[C@H]5C[C@@H](O[C@@H]6O[C@H](CO)[C@H](O[C@@H]7O[C@H](CO)C(O)[C@H](O[C@@H]8OC[C@@H](O)[C@H](O)[C@H]8O)[C@H]7O[C@@H]7O[C@H](CO)[C@H](O)[C@H](O[C@@H]8O[C@H](CO)[C@@H](O)[C@H](O)[C@H]8O)[C@H]7O)[C@H](O)[C@H]6O)[C@H](O)C[C@]5(C)[C@H]4CC[C@]3(C)[C@H]1[C@@H]2C (some centres not stated) [DIGITONIN],Not Active,Not Active,Not Active,Not Active,Not Active,Not Active,Not Active,–,–
OC(CCCN1CCCCC1)(c1ccccc1)c1ccccc1 [DIPHENIDOL],Not Active,Not Active,Not Active,Not Active,Not Active,Not Active,Not Active,–,–
